Assay results reported in US12378251B2, “Triazolopyrimidine compound and salt, composition and use thereof” (SHANGHAI INSTITUTE OF MATERIA MEDICA, CHINESE ACADEMY OF …, priority 2019, dated 2025).
Read-outs that look alike come from different tables or passages of the source.

Key:
[1] = biological target: NAE enzyme (human recombinant APPBP1/UBA3) (Homo sapiens (Human), UniProt Q8TBC4); test: Inhibition of NAE enzyme activity at the molecular level (HTRF); format: biochemical
Description: Homogeneous Time-Resolved Fluorescence (HTRF) technology was used to detect the in vitro inhibitory effect of the compound on NAE enzyme activity. […] (7) the inhibition rate of the compound was calculated by the following formula: • a. […] IC50 was calculated with a GraphPad software.

[2] = system: human colon cancer cells HCT-116; test: Inhibition of proliferation of HCT-116 cells (SRB method); format: cell-based
Description: The inhibitory effects of the compounds on the proliferation of human colon cancer cells HCT-116 were detected by a sulforodamine B (SRB) method. The specific steps were as follows: HCT-116 cells in the logarithmic phase were seeded into a 96-well culture plate at a suitable density with 90 μL per well. After overnight cultivation, the compounds at different concentrations were added to act for 72 h, and a solvent control group (negative control) was set. After 72 h of the compounds acting on the cells, the effects of the compounds on cell proliferation were detected using the SRB method as follows. The culture solution was discarded, and 100 μL/well of 10% trichloroacetic acid (TCA) pre-cooled at 4° C. was added, fixed at 4° C. for 1 h, then washed with distilled water for 5 times, and naturally dried in the air; 100 μL/well of SRB (4 mg/ml) solution prepared by 1% glacial acetic acid was added, stained at room temperature for 15 minutes; the supernatant was removed, washed with 1% acetic acid for 5 times, and air dried; 150 μl/well of Tris (10 mM) solution was added, then left at room temperature for 15 minutes; finally, a full-wavelength microplate enzyme-labeled instrument SpectraMax 190 was used to read with a measurement wavelength of 560 nm. The inhibition rate (%) of the compound on tumor cell growth was calculated by the following formula: [formula]

[3] = HCT-116, 72 h, read-out: HCT-116 IC50* (μM)
[4] = HCT-116 cells, 72 h, SRB, read-out: HCT-116 IC50*

Sequence of NAE enzyme (human recombinant APPBP1/UBA3) (Q8TBC4 whole entry): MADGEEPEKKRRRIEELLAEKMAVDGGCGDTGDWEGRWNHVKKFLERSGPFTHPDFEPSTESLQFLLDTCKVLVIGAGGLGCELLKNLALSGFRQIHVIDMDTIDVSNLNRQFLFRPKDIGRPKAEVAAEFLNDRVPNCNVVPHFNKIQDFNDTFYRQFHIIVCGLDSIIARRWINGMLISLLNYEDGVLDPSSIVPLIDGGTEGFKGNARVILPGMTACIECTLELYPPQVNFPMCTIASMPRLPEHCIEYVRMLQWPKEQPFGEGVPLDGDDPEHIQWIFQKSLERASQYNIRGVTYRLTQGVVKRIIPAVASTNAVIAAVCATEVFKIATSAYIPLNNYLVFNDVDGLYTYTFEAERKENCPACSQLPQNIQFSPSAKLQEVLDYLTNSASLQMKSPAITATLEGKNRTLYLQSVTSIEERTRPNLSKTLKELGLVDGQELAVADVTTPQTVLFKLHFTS
Sequence of NAE enzyme (human recombinant APPBP1/UBA3) (Q13564 whole entry partner): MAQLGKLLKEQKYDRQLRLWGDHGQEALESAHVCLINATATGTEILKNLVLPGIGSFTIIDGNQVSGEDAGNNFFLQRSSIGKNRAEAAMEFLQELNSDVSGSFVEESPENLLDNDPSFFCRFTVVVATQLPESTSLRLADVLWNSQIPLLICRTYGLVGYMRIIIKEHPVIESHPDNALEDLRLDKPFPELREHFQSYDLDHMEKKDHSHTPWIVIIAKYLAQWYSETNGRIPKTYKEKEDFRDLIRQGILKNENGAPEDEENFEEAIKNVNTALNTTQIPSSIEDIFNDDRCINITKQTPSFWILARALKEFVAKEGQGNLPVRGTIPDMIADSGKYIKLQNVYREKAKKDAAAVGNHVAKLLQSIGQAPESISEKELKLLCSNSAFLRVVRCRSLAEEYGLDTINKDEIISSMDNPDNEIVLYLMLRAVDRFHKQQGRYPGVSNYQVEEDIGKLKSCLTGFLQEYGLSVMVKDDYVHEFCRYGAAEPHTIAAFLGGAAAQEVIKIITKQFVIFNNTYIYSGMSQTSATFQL

| inhibition at 10 µM ([1]; 2 h; read-out: IR (10 μM)) [%] | IC50 [2, 4] [µM] | SMILES | inhibition at 10 µM ([1]; 2 h, read-out: IR (10 μM)) [%] | IC50 [2, 3] [µM] | IC50 ([1]; NAE enzyme activity, HTRF) [µM] |
| --- | --- | --- | --- | --- | --- |
|  |  | NS(=O)(=O)OCC1CC(n2nnc3c(N[C@H]4CCc5ccccc54)ncnc32)CC1O (stereo partly drawn) [Compound S1] | 99 | < 0.01 |  |
| 99.5 | < 0.01 | NS(=O)(=O)OCC1CC(n2nnc3c(NCc4ccccc4F)ncnc32)CC1O (stereo not drawn) [Compound S2] |  |  |  |
| 98.8 | 0.01 to 100 | NS(=O)(=O)OCC1CC(n2nnc3c(NCc4cccs4)ncnc32)CC1O (stereo not drawn) [Compound S3] |  |  |  |
| 98.6 | 0.01 to 100 | NS(=O)(=O)OCC1CC(n2nnc3c(NCc4ccco4)ncnc32)CC1O (stereo not drawn) [Compound S4] |  |  |  |
|  |  | NS(=O)(=O)OCC1CC(n2nnc3c(NCCc4cccs4)ncnc32)CC1O (stereo not drawn) [Compound S5] | 95.2 | > 100 | 0.1 to 1 |
|  |  | NS(=O)(=O)OCC1CC(n2nnc3c(NCCc4ccccc4)ncnc32)CC1O (stereo not drawn) [Compound S6] | 95.8 | > 100 |  |
| 96.1 | > 100 | NS(=O)(=O)OCC1CC(n2nnc3c(NCCCc4ccccc4)ncnc32)CC1O (stereo not drawn) [Compound S7] |  |  | 0.1 to 1 |
| 98.3 | > 100 | CCCCCCNc1ncnc2c1nnn2C1CC(O)C(COS(N)(=O)=O)C1 (stereo not drawn) [Compound S8] |  |  |  |
| 98.3 | < 0.01 | NS(=O)(=O)OCC1CC(n2nnc3c(N[C@@H]4c5ccccc5C[C@@H]4O)ncnc32)CC1O (stereo partly drawn) [Compound S9] |  |  |  |
| 91.4 | > 100 | NS(=O)(=O)OCC1CC(n2nnc3c(N[C@H]4CC5(CCNCC5)c5ccccc54)ncnc32)CC1O (stereo partly drawn) [Compound S14] |  |  |  |
| 85.2 | > 100 | NS(=O)(=O)OC[C@@H]1C[C@@H](n2nnc3c(N[C@@H]4C[C@H]4c4ccc(F)c(F)c4)ncnc32)CC1O (stereo partly drawn) [Compound S16] |  |  |  |
| 7.9 | > 100 | NS(=O)(=O)OCC1CC(n2nnc3c(Nc4n[nH]c5ccccc45)ncnc32)CC1O (stereo not drawn) [Compound S17] |  |  |  |
| 43.3 | > 100 | NS(=O)(=O)OCC1CC(n2nnc3c(Nn4ccc5ccccc54)ncnc32)CC1O (stereo not drawn) [Compound S18] |  |  |  |
| 57.8 | > 100 | NS(=O)(=O)OCC1CC(n2nnc3c(Nc4cnc5ccccn45)ncnc32)CC1O (stereo not drawn) [Compound S19] |  |  |  |
|  |  | COC(=O)[C@H]1C=C[C@@H](Nc2ncnc3c2nnn3C2CC(O)C(COS(N)(=O)=O)C2)C1 (stereo partly drawn) [Compound S20] | 84.8 | > 100 |  |
| 48.2 | > 100 | NS(=O)(=O)OCC1CC(n2nnc3c(NC4CCCC4)ncnc32)CC1O (stereo not drawn) [Compound S21] |  |  |  |

| SMILES | inhibition at 10 µM ([1]; 2 h; read-out: IR (10 μM)) [%] | IC50 [2, 4] [µM] | inhibition at 10 µM ([1]; 2 h, read-out: IR (10 μM)) [%] | IC50 [2, 3] [µM] | IC50 ([1]; NAE enzyme activity, HTRF) [µM] |
| --- | --- | --- | --- | --- | --- |
| CN1CCC2(CC1)C[C@H](Nc1ncnc3c1nnn3C1CC(O)C(COS(N)(=O)=O)C1)c1ccccc12 (stereo partly drawn) [Compound S15] | 77 | 0.01 to 100 |  |  | 0.1 to 1 |
| NS(=O)(=O)OC[C@@H]1C[C@@H](n2ccc3c(N[C@H]4CCc5ccccc54)ncnc32)C[C@@H]1O [MLN4924, reference compound] |  | < 0.01 | 98.6 |  |  |
